Test results: patent US10034886B2, “GLP-1 receptor modulators” (Celgene International II SÀRL, priority 2014, dated 2018)

molecular target: T1, GLP-1R (Homo sapiens, UniProt P43220); assay: EC20 GLP-1(9-36) PAM cAMP assay: dose response of compound in the presence of fixed concentration of GLP-1(9-36); type: cell-based; conditions: dose response of compound in presence of fixed concentration of GLP-1(9-36), GLP-1R CRE-bla CHO-K1 cells, read-out: EC20 GLP-1(9-36) PAM EC50
T1 construct: host or cells: GLP-1R CRE-bla CHO-K1 cells
T1 sequence (P43220 24-463): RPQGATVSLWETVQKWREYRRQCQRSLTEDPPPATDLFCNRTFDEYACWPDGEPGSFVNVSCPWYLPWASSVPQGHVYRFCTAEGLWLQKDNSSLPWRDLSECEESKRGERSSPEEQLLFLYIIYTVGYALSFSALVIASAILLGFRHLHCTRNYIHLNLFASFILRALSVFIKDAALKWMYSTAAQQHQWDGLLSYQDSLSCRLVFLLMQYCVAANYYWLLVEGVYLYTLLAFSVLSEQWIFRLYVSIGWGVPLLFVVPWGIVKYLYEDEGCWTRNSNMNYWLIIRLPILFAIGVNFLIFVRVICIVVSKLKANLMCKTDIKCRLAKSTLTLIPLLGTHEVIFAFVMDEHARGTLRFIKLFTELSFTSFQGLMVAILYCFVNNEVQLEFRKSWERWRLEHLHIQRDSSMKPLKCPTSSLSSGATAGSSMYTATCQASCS
T1 sequence (P01275 100-127 partner limits assumed): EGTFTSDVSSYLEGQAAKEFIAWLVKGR
Method in brief: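 GLP-1R CRE-bla CHO-K1 cells treated 30 min at 37 °C with 12-point compound dose response plus fixed EC20 GLP-1(9-36), with IBMX, in HBSS/HEPES/0.1% BSA pH 7.4. Total cAMP measured by luminescent detection against standard curve; EC50 and Emax from non-linear regression.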

EC50 [nM]	SMILES
800 to 2500	CCCCCCCOc1ccc(-c2cnc(-c3ccc(C[C@H](NC(=O)c4ccc(C(C)(C)C)s4)C(=O)N[C@@H](CC(=O)O)C(=O)N4CCNCC4)cc3)nc2)cc1 [Compound 534]
5000 to 10000	CCCCCCCOc1ccc(-c2cnc(-c3ccc(C[C@H](NC(=O)c4ccc(C(C)(C)C)s4)C(=O)NC4CCCC(C(=O)O)C4)cc3)nc2)cc1 (stereo partly drawn) [Compound 535]
800 to 2500	CCCCCCCOc1ccc(-c2cnc(-c3ccc(C[C@H](NC(=O)c4ccc(C(C)(C)C)cc4)C(=O)NC(C(=O)O)c4nc(C)oc4C)cc3)nc2)cc1 (stereo partly drawn) [Compound 536]
5000 to 10000	CCCCCCCOc1ccc(-c2cnc(-c3ccc(C[C@H](NC(=O)c4ccc(C(C)(C)C)cc4)C(=O)NC(C)CC(=O)O)cc3)nc2)cc1 (stereo partly drawn) [Compound 537]
5000 to 10000	CCCCCCCOc1ccc(-c2cnc(-c3ccc(C[C@H](NC(=O)c4ccc(C(C)(C)C)cc4)C(=O)NC(CC(=O)O)c4cccc(O)c4)cc3)nc2)cc1 (stereo partly drawn) [Compound 538]
5000 to 10000	CCCCCCCOc1ccc(-c2cnc(-c3ccc(C[C@H](NC(=O)c4ccc(C(C)(C)C)cc4)C(=O)NC(CC(=O)O)c4ccccc4)cc3)nc2)cc1 (stereo partly drawn) [Compound 539]
< 800	CCCCCCCOc1ccc(-c2cnc(-c3ccc(C[C@H](NC(=O)c4ccc(C(C)(C)C)cc4)C(=O)NC(C(=O)O)C4CCOCC4)cc3)nc2)cc1 (stereo partly drawn) [Compound 540]
800 to 2500	CCCCCCCOc1ccc(-c2cnc(-c3ccc(C[C@H](NC(=O)c4ccc(C(C)(C)C)cc4)C(=O)NC(Cc4cccnc4)C(=O)O)cc3)nc2)cc1 (stereo partly drawn) [Compound 541]
< 800	CCCCCCCOc1ccc(-c2cnc(-c3ccc(C[C@H](NC(=O)c4ccc(C(C)(C)C)cc4)C(=O)N[C@@H](Cc4ccccn4)C(=O)O)cc3)nc2)cc1 [Compound 542]
< 800	CCCCCCCOc1ccc(-c2cnc(-c3ccc(C[C@H](NC(=O)c4ccc(C(C)(C)C)cc4)C(=O)NC(C(=O)O)c4ccc(OC)cc4)cc3)nc2)cc1 (stereo partly drawn) [Compound 543]
< 800	CCCCCCCOc1ccc(-c2cnc(-c3ccc(C[C@H](NC(=O)c4ccc(C(C)(C)C)cc4)C(=O)NC(Cc4cscn4)C(=O)O)cc3)nc2)cc1 (stereo partly drawn) [Compound 544]
< 800	CCCCCCCOc1ccc(-c2cnc(-c3ccc(C[C@H](NC(=O)c4ccc(C(C)(C)C)cc4)C(=O)NC(C(=O)O)c4cccc(C(F)(F)F)c4)cc3)nc2)cc1 (stereo partly drawn) [Compound 545]
800 to 2500	CCCCCCCOc1ccc(-c2cnc(-c3ccc(C[C@H](NC(=O)c4ccc(C(C)(C)C)cc4)C(=O)N[C@H](C(=O)O)C(C)(C)C)cc3)nc2)cc1 [Compound 546]
800 to 2500	CCCCCCCOc1ccc(-c2cnc(-c3ccc(C[C@H](NC(=O)c4ccc(C(C)(C)C)cc4)C(=O)NC(CCCC)C(=O)O)cc3)nc2)cc1 (stereo partly drawn) [Compound 547]
< 800	CCCCCCCOc1ccc(-c2cnc(-c3ccc(C[C@H](NC(=O)c4ccc(C(C)(C)C)cc4)C(=O)NC(CC)C(=O)O)cc3)nc2)cc1 (stereo partly drawn) [Compound 548]
< 800	CCCCCCCOc1ccc(-c2cnc(-c3ccc(C[C@H](NC(=O)c4ccc(C(C)(C)C)cc4)C(=O)NC(C(=O)O)c4c(C)n[nH]c4C)cc3)nc2)cc1 (stereo partly drawn) [Compound 549]
800 to 2500	CCCCCCCOc1ccc(-c2cnc(-c3ccc(C[C@H](NC(=O)c4ccc(C(C)(C)C)cc4)C(=O)NC(CO)CC(=O)O)cc3)nc2)cc1 (stereo partly drawn) [Compound 550]
< 800	CCCCCCCOc1ccc(-c2cnc(-c3ccc(C[C@H](NC(=O)c4ccc(C(C)(C)C)cc4)C(=O)NC(CC(=O)O)C4CCOCC4)cc3)nc2)cc1 (stereo partly drawn) [Compound 551]
800 to 2500	CCCCCCCOc1ccc(-c2cnc(-c3ccc(C[C@H](NC(=O)c4ccc(C(C)(C)C)cc4)C(=O)NC(CC(=O)O)c4ccc(OC)cc4)cc3)nc2)cc1 (stereo partly drawn) [Compound 552]
800 to 2500	CCCCCCCOc1ccc(-c2cnc(-c3ccc(C[C@H](NC(=O)c4ccc(C(C)(C)C)cc4)C(=O)NC4(CC(=O)O)CCOCC4)cc3)nc2)cc1 [Compound 553]
< 800	CCCCCCCOc1ccc(-c2cnc(-c3ccc(C[C@H](NC(=O)c4ccc(C(C)(C)C)cc4)C(=O)NCC(O)C(=O)O)cc3)nc2)cc1 (stereo partly drawn) [Compound 554]
2500 to 5000	CCCCCCCOc1ccc(-c2cnc(-c3ccc(C[C@H](NC(=O)c4ccc(C(C)(C)C)cc4)C(=O)NCC(C(=O)O)C4CCOCC4)cc3)nc2)cc1 (stereo partly drawn) [Compound 555]
< 800	CCCCCCCOc1ccc(-c2cnc(-c3ccc(C[C@H](NC(=O)c4ccc(C(C)(C)C)cc4)C(=O)NCC(C(=O)O)c4ccccc4)cc3)nc2)cc1 (stereo partly drawn) [Compound 556]
< 800	CCCCCCCOc1ccc(-c2cnc(-c3ccc(C[C@H](NC(=O)c4ccc(C(C)(C)C)cc4)C(=O)NCC(Cc4cccnc4)C(=O)O)cc3)nc2)cc1 (stereo partly drawn) [Compound 557]
< 800	CCCCCCCOc1ccc(-c2cnc(-c3ccc(C[C@H](NC(=O)c4ccc(C(C)(C)C)cc4)C(=O)NCC(Cc4ccc(O)cc4)C(=O)O)cc3)nc2)cc1 (stereo partly drawn) [Compound 558]
5000 to 10000	CCCCCCCOc1ccc(-c2cnc(-c3ccc(C[C@H](NC(=O)c4ccc(C(C)(C)C)cc4)C(=O)NCC(CC4CCOCC4)C(=O)O)cc3)nc2)cc1 (stereo partly drawn) [Compound 559]

EC50 [nM]	SMILES
800 to 2500	CCCCCCCOc1ccc(-c2cnc(-c3ccc(C[C@H](NC(=O)c4ccc(C(C)(C)C)cc4)C(=O)NCC(CC4CCOC4)C(=O)O)cc3)nc2)cc1 (stereo partly drawn) [Compound 560]
< 800	CCCCCCCOc1ccc(-c2cnc(-c3ccc(C[C@H](NC(=O)c4ccc(C(C)(C)C)cc4)C(=O)NC(Cc4ccccc4)C(=O)O)cc3)nc2)cc1 (stereo partly drawn) [Compound 561]
< 800	CCCCCCCOc1ccc(-c2cnc(-c3ccc(C[C@H](NC(=O)c4ccc(C(C)(C)C)cc4)C(=O)NC(CCC)C(=O)O)cc3)nc2)cc1 (stereo partly drawn) [Compound 562]
< 800	CCCCCCCOc1ccc(-c2cnc(-c3ccc(C[C@H](NC(=O)c4ccc(C(C)(C)C)cc4)C(=O)N4CC=CC4C(=O)O)cc3)nc2)cc1 (stereo partly drawn) [Compound 563]
800 to 2500	CCCCCCCOc1ccc(-c2cnc(-c3ccc(C[C@H](NC(=O)c4ccc(C(C)(C)C)cc4)C(=O)NC(Cc4ccc(Cl)cc4)C(=O)O)cc3)nc2)cc1 (stereo partly drawn) [Compound 564]
800 to 2500	CCCCCCCOc1ccc(-c2cnc(-c3ccc(C[C@H](NC(=O)c4ccc(C(C)(C)C)cc4)C(=O)N4CCC4C(=O)O)cc3)nc2)cc1 (stereo partly drawn) [Compound 565]
< 800	CCCCCCCOc1ccc(-c2cnc(-c3ccc(C[C@H](NC(=O)c4ccc(C(C)(C)C)cc4)C(=O)NC(C(=O)O)c4cccc(OC)c4)cc3)nc2)cc1 (stereo partly drawn) [Compound 566]
< 800	CCCCCCCOc1ccc(-c2cnc(-c3ccc(C[C@H](NC(=O)c4ccc(C(C)(C)C)cc4)C(=O)N4C[C@H](O)C[C@H]4C(=O)O)cc3)nc2)cc1 [Compound 567]
< 800	CCCCCCCOc1ccc(-c2cnc(-c3ccc(C[C@H](NC(=O)c4ccc(C(C)(C)C)cc4)C(=O)NC(Cc4ccc(OC)cc4)C(=O)O)cc3)nc2)cc1 (stereo partly drawn) [Compound 568]
< 800	CCCCCCCOc1ccc(-c2cnc(-c3ccc(C[C@H](NC(=O)c4ccc(C(C)(C)C)cc4)C(=O)NC(C(=O)O)C(O)c4ccccc4)cc3)nc2)cc1 (stereo partly drawn) [Compound 569]
< 800	CCCCCCCOc1ccc(-c2cnc(-c3ccc(C[C@H](NC(=O)c4ccc(C(C)(C)C)cc4)C(=O)NC(C(=O)O)C(O)c4ccccc4)cc3)nc2)cc1 (stereo partly drawn) [Compound 570]
800 to 2500	CCCCCCCOc1ccc(-c2cnc(-c3ccc(C[C@H](NC(=O)c4ccc(C(C)(C)C)cc4)C(=O)NC(CC(=O)O)c4cccnc4)cc3)nc2)cc1 (stereo partly drawn) [Compound 571]
800 to 2500	CCCCCCCOc1ccc(-c2cnc(-c3ccc(C[C@H](NC(=O)c4ccc(C(C)(C)C)cc4)C(=O)NCc4ccc(C(=O)O)o4)cc3)nc2)cc1 [Compound 572]
800 to 2500	CCCCCCCOc1ccc(-c2cnc(-c3ccc(C[C@H](NC(=O)c4ccc(C(C)(C)C)cc4)C(=O)NC(CCCC(=O)O)C(=O)O)cc3)nc2)cc1 (stereo partly drawn) [Compound 573]
800 to 2500	CCCCCCCOc1ccc(-c2cnc(-c3ccc(C[C@H](NC(=O)c4ccc(C(C)(C)C)cc4)C(=O)NC(C(=O)O)C(C)c4ccccc4)cc3)nc2)cc1 (stereo partly drawn) [Compound 574]
2500 to 5000	CCCCCCCOc1ccc(-c2cnc(-c3ccc(C[C@H](NC(=O)c4ccc(C(C)(C)C)cc4)C(=O)N[C@H](CCCNC(=O)OCc4ccccc4)C(=O)O)cc3)nc2)cc1 [Compound 575]
800 to 2500	CCCCCCCOc1ccc(-c2cnc(-c3ccc(C[C@H](NC(=O)c4ccc(C(C)(C)C)cc4)C(=O)N[C@@H](Cc4cnn(C)c4)C(=O)O)cc3)nc2)cc1 [Compound 576]
2500 to 5000	CCCCCCCOc1ccc(-c2cnc(-c3ccc(C[C@H](NC(=O)c4ccc(C(C)(C)C)cc4)C(=O)N[C@@H](CC4CCCNC4)C(=O)O)cc3)nc2)cc1 (stereo partly drawn) [Compound 577]
2500 to 5000	CCCCCCCOc1ccc(-c2cnc(-c3ccc(C[C@H](NC(=O)c4ccc(C(C)(C)C)cc4)C(=O)N4CCC(C(=O)O)CC4)cc3)nc2)cc1 [Compound 578]
< 800	CCCCCCCOc1ccc(-c2cnc(-c3ccc(C[C@H](NC(=O)c4ccc(C(C)(C)C)cc4)C(=O)N[C@@H](CC(=O)O)C(N)=O)cc3)nc2)cc1 [Compound 579]
< 800	CCCCCCCOc1ccc(-c2cnc(-c3ccc(C[C@H](NC(=O)c4ccc(C(C)(C)C)cc4)C(=O)N[C@@H](CC(=O)O)C(=O)NC)cc3)nc2)cc1 [Compound 580]
800 to 2500	CCCCCCCOc1ccc(-c2cnc(-c3ccc(C[C@H](NC(=O)c4ccc(C(C)(C)C)cc4)C(=O)NC(CC(=O)O)c4ccccc4O)cc3)nc2)cc1 (stereo partly drawn) [Compound 581]
800 to 2500	CCCCCCCOc1ccc(-c2cnc(-c3ccc(C[C@H](NC(=O)c4ccc(C(C)(C)C)cc4)C(=O)N4CC[C@H](N)[C@@H](C(=O)O)C4)cc3)nc2)cc1 [Compound 582]
5000 to 10000	CCCCCCCOc1ccc(-c2cnc(-c3ccc(C[C@H](NC(=O)c4ccc(C(C)(C)C)cc4)C(=O)N4CCC[C@@H](C(=O)O)[C@H]4C)cc3)nc2)cc1 [Compound 583]
800 to 2500	CCCCCCCOc1ccc(-c2cnc(-c3ccc(C[C@H](NC(=O)c4ccc(C(C)(C)C)cc4)C(=O)NC(Cc4c[nH]c5ncccc45)C(=O)O)cc3)nc2)cc1 (stereo partly drawn) [Compound 584]
